# Test results as given in US20110237541A1, “TRANSDERMALLY ADMINISTERED ALISKIREN” (priority 2008, published 2011).
# Where two headings read alike, the source gives them in different places.
# Key:
# [1] = tested on: plasma renin activity (PRA); assay: Plasma renin activity (PRA) after TD delivery in double transgenic rats; assay type: in vivo; conditions: Rattus norvegicus, dTG rats, 4 h after delivery
# Description: Pharmacokinetics and biomarkers—A blood sample (0.3 ml) was taken by tail bleed or jugular intravenous 4 h and 24 h after TD delivery to determine compound levels and plasma renin activity (PRA).
# [2] = AUC of aliskiren after PO or TD delivery in telemetrized female dTG rats; assay type: in vivo, rat; conditions: for AUC(0-t): double transgenic (dTG, human renin and angiotensin), rat, read-out: AUC24 h
# Description: The rat was lightly sedated under 2.5% isoflurane anesthesia, and its back was shaved over a 4 cm^2 area.
# (§1) After complete evaporation of the DMSO solution (within 5 min after application), an occlusive transparent, waterproof film (OpSite) was taped to the back of the animal over the shaved area, and a jacket was fitted on the animal. Isoflurane inhalation was stopped, and the animal individually caged.
# [3] = tested on: female double transgenic (dtg) rats; assay: Mean arterial pressure by telemetry in double transgenic rats; assay type: in vivo, rat; conditions: for max MAP decrease: versus control group
# Description: Female double transgenic (dtg) rats, which are transgenic for human renin and angiotensin (see, e.g., Bohlender et al., J AM SOC NEPHROL 11:2056 (2000)) were used. All animals were maintained under identical conditions and had free access to normal pelleted rat chow and water. Rats were initially treated with enalapril (1 mg/kg/day), starting 3 weeks after birth and continuing for 2 months. After approximately two weeks following cessation of enalapril treatment, the double transgenic rats are hypertensive, with mean arterial blood pressures in the range of 160-170 mmHg.
# Transmitter implantation—The rats were anesthetized using isoflurane (via inhalation, 2-3%) The pressure transmitter was implanted under aseptic conditions into the peritoneal cavity with the sensing catheter placed in the descending aorta below the renal arteries pointing upstream. The transmitter was sutured to the abdominal musculature, the skin closed, and the rats were individually housed in a cage, placed on a telemetry receiver pad to enable collection of the blood pressure data during recovery from anesthesia and thereafter. The rats were singly caged for the duration of the recording of telemetry data.
# Telemetry-System—Telemetry units were obtained from Data Sciences (St. Paul, Minn.). […] The tip of the catheter was filled with a viscous gel that prevents blood reflux and was coated with an antithrombogenic film. The implants (length=2.5 cm, diameter=1.2 cm) weighed 9 g and have a typical battery life of 6 months. A receiver platform (model RPC-1 from Data Sciences) connected the radio signal to digitized input that was sent to a dedicated personal computer. Arterial pressures were calibrated by using an input from an ambient-pressure reference (APR-1, Data Sciences). Systolic, mean, and diastolic blood pressures were expressed in millimeter of mercury (mmHg).
# Drug administration—For oral dosing, aliskiren was dissolved in 0.5% methocel and administered via feeding tubes. The compound was dosed in a single bolus of 3 mg/5 ml/kg or 30 mg/5 ml/kg. After dosing, the rat was returned to the cage. Blood pressure data were collected up to 7 days after oral dosing.
# For transdermal delivery, aliskiren was dissolved in 100% DMSO to be applied in a single application of 250 μl of solution. The rat was lightly sedated under 2.5% isoflurane anesthesia, and its back was shaved over a 4 cm^2 area. The animal was returned to the cage to recover from anesthesia. Twenty-four hours later, the rat was lightly sedated under 2.5% isoflurane anesthesia, and the shaved area disinfected with 3 passes of ethanol.
# as §1, with “After evaporation of the ethanol, a volume of 250 μl of 100% DMSO only, or of the compound dissolved in a 100% DMSO solution was applied over the shaved area using a micropipette. After” for “After”, “caged. Blood pressure data was collected up to 5 days after application of the compound/DMSO solution.” for “caged.”
# Hemodynamic measurements—For oral delivery, double transgenic rats with implanted pressure transmitters were dosed by oral gavage with a single bolus of vehicle (5 ml/kg) or of the test substance (30 mg/5 ml/kg) (n=6 per group).
# For transdermal delivery, double transgenic rats with implanted pressure transmitters were dosed with a single application of vehicle (250 μl of 100% DMSO; n=4) or of the test substance (10 mg in 250 μl of 100% DMSO, i.e. 36 mg/kg; n=5).
# The mean arterial blood pressure was continuously monitored. The effect of the test substance is expressed as maximal decrease of mean arterial pressure (MAP) in the treated group versus the control group. […]
# [4] = Bioavailability of aliskiren after oral and transdermal administration in Sprague-Dawley rats (plasma LC-MS/MS); assay type: in vivo, rat; conditions: male SD rats; for AUC: Sprague-Dawley, rat, plasma
# Description: Male Sprague-Dawley rats (300-400 g body weight) were purchased from Charles River Canada Corporation (188 Rue LaSalle, St-Constant, QC, J5A 1Y2, Canada). […] For oral dosing, aliskiren was dissolved in 0.5% methocel and administered via feeding tubes. The compound was dosed in a single bolus of 3 mg/5 ml/kg or 25 mg/5 ml/kg. For intravenous (IV) […] dosing, aliskiren was dissolved in 60% PEG 200 and administered in a single bolus at 0.5 mg/1 ml/kg. For transdermal delivery, aliskiren was dissolved in 100% DMSO, and applied (single application of 250 μl of solution) onto the shaved skin of the rat. The rat was lightly sedated under 2.5% isoflurane anesthesia, and its back was shaved over a 4 cm^2 area. The animal was returned to its cage to recover from anesthesia. Twenty-four hours later, the rat was lightly sedated under 2.5% isoflurane anesthesia, and the shaved area was disinfected with three passes of ethanol. After evaporation of the ethanol, a volume of […] of 100% DMSO only, or of the compound dissolved in a 100% DMSO solution was applied over the shaved area using a micropipette. After complete evaporation of the DMSO solution (within 5 min after application), an occlusive transparent, waterproof film (OpSite) was taped to the back of the animal over the shaved area, and a jacket was fitted on the animal. Isoflurane inhalation was stopped, and the animal individually caged. The jacket was removed four hours after application of the compound solution.
# A blood sample (0.4 ml) was taken by tail or jugular vein bleed for the determination of compound levels, 1 h, 2 h, 4 h, 6 h, 8 h, 10 h and 24 h after either oral gavage or application on the skin of the compound dissolved in 100% DMSO solution. The animal was euthanized after the 24 h time point. […] The plasma was separated by centrifugation and stored at −20° C. pending analysis. Plasma samples were analyzed for aliskiren concentrations using liquid chromatography coupled to mass spectrometry (LC-MS/MS).
# [5] = TD, 36 mg/kg single application
smiles,measurement,setting,value
"COCCCOc1cc(C[C@@H](C[C@H](N)[C@@H](O)C[C@H](C(=O)NCC(C)(C)C(N)=O)C(C)C)C(C)C)ccc1OC [aliskiren, (2S,4S,5S,7S)-5-amino-N-(2-carbamoyl-2,2-dimethylethyl)-4-hydroxy-7-{[4-methoxy-3-(3-methoxypropoxy)phenyl]methyl}-8-methyl-2-(propan-2-yl)nonanamide]",inhibition at 36 mg/kg,[1],97%
same,"increase of AUC, transdermal versus oral delivery",[2]; at the dose used (TD 36 mg/kg vs PO 30 mg/kg),70 fold
same,AUC(0-t),"[2]; blood, topical, TD, 36 mg/kg",1.5 µM·h
same,AUC(0-t),"[2]; in vivo, PO, 30 mg/kg",< 0.021 µM·h
same,ABC36 h,"[3]; PO, 30 mg/kg single bolus",630 mmHg * hr
same,duration (of MAP reduction),"[3]; PO, 30 mg/kg single bolus",1.5 days
same,max MAP decrease,"[3]; PO, 30 mg/kg single bolus",40 mmHg
same,ABC36 h,[3]; [5],1213 mmHg * hr
same,duration (of MAP reduction),"[3]; TD, 36 mg/kg single application, 36 mg/kg",>3 days
same,max MAP decrease,[3]; [5],40 mmHg
same,AUC,"[4]; topical, TD, 2.9 mg/kg",0.084 µM·h
same,AUC,"[4]; topical, TD, 29 mg/kg",0.25 µM·h
same,AUC,"[4]; PO, 3 mg/kg",0.0021 µM·h
same,AUC,"[4]; PO, 25 mg/kg",0.058 µM·h
same,F,"[4]; PO, 3 mg/kg",0.1%
same,F,"[4]; PO, 25 mg/kg",0.43%
same,F,"[4]; TD, 2.9 mg/kg",5.4%
same,F,"[4]; TD, 29 mg/kg",1.6%
